The numbers were not newly measured in article PMC3065555 (European journal of medicinal chemistry, 2011), which cites them from elsewhere.

A word on the pIC50: it is −log10 of the IC50, conventionally taken in molar units.

For this series, the target named is SERCA (Oryctolagus cuniculus, UniProt P04191). The conditions noted are these: training set compounds previously characterized; ref [1], [6], [32].

pIC50: −log10 of the molar value.

SERCA, sequence (P04191 1-994 isoform P04191-2): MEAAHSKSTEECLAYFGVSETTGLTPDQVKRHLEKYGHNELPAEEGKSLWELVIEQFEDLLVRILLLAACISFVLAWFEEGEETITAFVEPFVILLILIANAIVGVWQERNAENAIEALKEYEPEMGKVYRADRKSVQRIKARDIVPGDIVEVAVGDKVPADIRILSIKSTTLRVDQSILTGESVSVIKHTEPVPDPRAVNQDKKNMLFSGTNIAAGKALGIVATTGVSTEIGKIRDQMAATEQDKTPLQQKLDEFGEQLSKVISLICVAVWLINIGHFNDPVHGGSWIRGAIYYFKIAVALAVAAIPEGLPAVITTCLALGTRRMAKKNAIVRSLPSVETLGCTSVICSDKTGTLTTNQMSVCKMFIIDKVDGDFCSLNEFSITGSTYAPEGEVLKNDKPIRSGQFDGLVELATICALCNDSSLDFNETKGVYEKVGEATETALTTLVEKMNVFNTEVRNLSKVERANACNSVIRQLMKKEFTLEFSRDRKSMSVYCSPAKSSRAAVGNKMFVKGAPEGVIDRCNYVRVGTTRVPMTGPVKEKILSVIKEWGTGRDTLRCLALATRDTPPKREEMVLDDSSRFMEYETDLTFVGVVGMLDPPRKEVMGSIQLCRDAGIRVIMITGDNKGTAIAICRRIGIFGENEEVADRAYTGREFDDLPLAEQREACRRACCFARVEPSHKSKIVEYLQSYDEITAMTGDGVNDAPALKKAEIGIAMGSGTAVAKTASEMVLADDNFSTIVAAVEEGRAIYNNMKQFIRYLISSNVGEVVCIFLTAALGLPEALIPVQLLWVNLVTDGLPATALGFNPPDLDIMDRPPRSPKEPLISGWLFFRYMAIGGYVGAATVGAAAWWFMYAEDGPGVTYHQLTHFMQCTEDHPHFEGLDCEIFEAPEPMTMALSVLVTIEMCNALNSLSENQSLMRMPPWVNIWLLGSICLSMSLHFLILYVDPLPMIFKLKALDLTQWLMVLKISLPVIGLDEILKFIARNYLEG

For the compound `CC(C)(C)c1ccc(C(C)(C)C)cc1` [1,4-di-tert-butylbenzene], the IC50 result is “inactive”.
`CC(C)(C)c1ccc(C(C)(C)C)c(O)c1` [2,5-di-tert-butylphenol]: the pIC50 is 5.17.
